Our source for the Ki and Activity values is ChEMBL document CHEMBL1156471, “Targeting host cell furin proprotein convertases as a therapeutic strategy against bacterial toxins and viral pathogens” (J Biol Chem, 2007).

For one test, the target named is Furin (Homo sapiens, UniProt P09958).
Another test relates to U-251. The test is described as follows: Inhibition of proprotein convertase-mediated anthrax protective antigen-83 processing in human U251 cells at 20 uM by Western blot. The conditions noted are these: Bacillus anthracis. Format: cell-based.

Active and inactive are the calls of the source. The rule behind the calls is not given here.

Furin, sequence (P09958 whole entry): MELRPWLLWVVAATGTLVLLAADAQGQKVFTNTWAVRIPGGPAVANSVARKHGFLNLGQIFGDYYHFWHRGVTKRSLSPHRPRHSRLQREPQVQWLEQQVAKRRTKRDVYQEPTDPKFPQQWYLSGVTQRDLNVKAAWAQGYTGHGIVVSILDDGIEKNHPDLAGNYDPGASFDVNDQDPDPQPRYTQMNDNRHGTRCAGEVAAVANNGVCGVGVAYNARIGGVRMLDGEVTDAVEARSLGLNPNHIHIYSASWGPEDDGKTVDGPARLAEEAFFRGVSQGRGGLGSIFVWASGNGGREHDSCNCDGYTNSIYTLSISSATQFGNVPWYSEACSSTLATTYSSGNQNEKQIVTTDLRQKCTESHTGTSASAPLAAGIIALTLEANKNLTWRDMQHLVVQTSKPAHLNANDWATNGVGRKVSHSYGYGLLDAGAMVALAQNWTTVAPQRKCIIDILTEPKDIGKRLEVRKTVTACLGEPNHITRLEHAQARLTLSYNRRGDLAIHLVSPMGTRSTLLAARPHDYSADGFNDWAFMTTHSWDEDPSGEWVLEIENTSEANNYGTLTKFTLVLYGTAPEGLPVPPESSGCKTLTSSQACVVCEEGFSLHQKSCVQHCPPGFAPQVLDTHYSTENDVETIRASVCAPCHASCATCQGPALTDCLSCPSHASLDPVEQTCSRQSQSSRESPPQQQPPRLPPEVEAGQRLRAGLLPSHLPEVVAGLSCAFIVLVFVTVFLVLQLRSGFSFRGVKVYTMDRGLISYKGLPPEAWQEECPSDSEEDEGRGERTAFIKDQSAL

As to H-TPQRARRRKKRD-OH, on Furin, the affinity corresponds to a Ki of 50 nM.

H-TPQRARRRKKRE-OH returned a Ki at Furin of 103 nM.

For H-TPQRARRRKKRH-OH, at Furin, the Ki was > 100 nM.

Turning to H-TPQRARRRKKRI-OH, on Furin, the Ki was > 100 nM.

With H-TPQRARRRKKRL-OH, on Furin, the Ki is > 100 nM.

The substance H-TPQRARRRKKRM-OH displayed a Ki on Furin of 58 nM.

Turning to H-TPQRARRRKKRN-OH, the Ki on Furin was > 100 nM.

For H-TPQRARRRKKRP-OH, on Furin, the Ki is > 100 nM.

With H-TPQRARRRKKRQ-OH, the Ki at Furin is > 100 nM.

Regarding H-TPQRARRRKKRS-OH, the inhibition constant (Ki) on Furin was > 100 nM.

In the case of H-TPQRARRRKKRV-OH, on Furin, the Ki was 48 nM.

For H-TPQRDRRRKKRG-OH, on Furin, the Ki is > 100 nM.

On to H-TPQRFRRRKKRG-OH, for which the Ki on Furin is > 100 nM.

H-TPQRGRRRKKRG-OH: the inhibitory constant (Ki) at Furin is > 100 nM.

As to H-TPQRHRRRKKRG-OH, the Ki on Furin was > 100 nM.

In the case of H-TPQRIRRRKKRG-OH, on Furin, the inhibition constant (Ki) is > 100 nM.

For the substance H-TPQRNRRRKKRG-OH, at Furin, the inhibition constant Ki was > 100 nM.

As for H-TPQRPRRRKKRG-OH, on Furin, the inhibitory constant (Ki) was > 100 nM.

Take H-TPQRQRRRKKRG-OH: at Furin, the Ki is > 100 nM.

On to H-TPQRSRRRKKRG-OH, for which the Ki on Furin is > 100 nM.

As to H-TPQRTRRRKKRG-OH, the Ki at Furin was > 100 nM.

Take H-TPQRVRRRKKRG-OH: at Furin, the inhibitory constant (Ki) is > 100 nM.

For H-TPQRWRRRKKRG-OH, the Ki on Furin is > 100 nM.

For H-TPQRYRRRKKRG-OH, on Furin, the inhibition constant (Ki) is > 100 nM.

Regarding H-TPRAARRKKR-OH, the Ki at Furin was > 100 nM.

Turning to H-TPRAARRKKRG-OH, the Ki at Furin is > 100 nM.

Consider H-TPRAARRKKRV-OH, for which the Ki on Furin was > 100 nM.

In the case of H-TPRARRRKKRA-NH2, the Ki at Furin is > 100 nM.

As to H-TPRARRRKKRA-OH, at Furin, the Ki is > 100 nM.

The substance H-TPRARRRKKRD-OH registered a Ki on Furin of 56 nM.

H-TPRARRRKKRE-NH2: on Furin, the Ki is > 100 nM.

As to H-TPRARRRKKRE-OH, on Furin, the Ki is > 100 nM.

As to H-TPRARRRKKRF-NH2 [listing 1 of 2 here], the Ki on Furin is 38 nM.

Consider H-TPRARRRKKRF-NH2 [listing 2 of 2 here], for which, in the test with U-251, the result was Active.

In the case of H-TPRARRRKKRF-OH, on Furin, the affinity corresponds to a Ki of 38 nM. In addition, in the test with U-251, the outcome was Active.

Substance H-TPRARRRKKRG-NH2 displayed a Ki at Furin of 57 nM.

Substance H-TPRARRRKKRG-OH registered an inhibitory constant (Ki) at Furin of 57 nM.

On to H-TPRARRRKKRH-NH2, for which the Ki at Furin is > 100 nM.

As to H-TPRARRRKKRH-OH, at Furin, the Ki was > 100 nM.

Substance H-TPRARRRKKRI-OH returned an inhibitory constant (Ki) on Furin of 30 nM.

On to H-TPRARRRKKRK-NH2, for which the inhibitory constant (Ki) at Furin is > 100 nM.

For H-TPRARRRKKRK-OH, the Ki on Furin was > 100 nM.

Substance H-TPRARRRKKRN-NH2 returned a Ki at Furin of 45 nM.

The substance H-TPRARRRKKRN-OH gave a Ki on Furin of 45 nM.

Take H-TPRARRRKKRP-NH2: the Ki on Furin is > 100 nM.

For the substance H-TPRARRRKKRP-OH, the inhibitory constant (Ki) at Furin is > 100 nM.

Consider H-TPRARRRKKRQ-NH2, for which the Ki at Furin turned out to be 47 nM.

At Furin, H-TPRARRRKKRQ-OH gave a Ki of 47 nM.

For H-TPRARRRKKRR-NH2, the Ki on Furin is > 100 nM.

As for H-TPRARRRKKRR-OH, the Ki on Furin was > 100 nM.

As for H-TPRARRRKKRS-NH2, at Furin, the Ki was > 100 nM.

In the case of H-TPRARRRKKRS-OH, the Ki on Furin is > 100 nM.

Regarding H-TPRARRRKKRT-OH, at Furin, the Ki worked out at 23 nM. Further, the result in the test with U-251 was Active.

H-TPRARRRKKRV-NH2: the Ki at Furin worked out at 80 nM.

H-TPRARRRKKRV-OH: at Furin, the affinity, expressed as Ki, was 80 nM.

With H-TPRARRRKKRW-NH2, the affinity on Furin, expressed as Ki, was 59 nM. In addition, the result in the test on U-251 was Active.

H-TPRARRRKKRW-OH [listing 1 of 2 here] returned a Ki at Furin of 59 nM.

Regarding H-TPRARRRKKRW-OH [listing 2 of 2 here], the outcome with U-251 was Active.

Regarding H-TPRARRRKKRY-NH2, the Ki on Furin was found to be 53 nM. Also, the outcome in the test with U-251 was Active.

Take H-TPRARRRKKRY-OH [listing 1 of 2 here]: the Ki on Furin was determined as 53 nM.

On to H-TPRARRRKKRY-OH [listing 2 of 2 here], for which the outcome in the test on U-251 was Active.

On to H-TPRCRRRKKRG-NH2, for which the Ki at Furin was > 100 nM.

H-TPRCRRRKKRG-OH: the Ki on Furin is > 100 nM.

Regarding H-TPRDRRRKKRG-NH2, the Ki at Furin was > 100 nM.

For H-TPRDRRRKKRG-OH, the Ki on Furin was > 100 nM.

On to H-TPREAAAKKR-OH, for which the Ki at Furin is > 100 nM.

For H-TPREAAAKKRG-OH, the Ki on Furin is > 100 nM.

Take H-TPREAAAKKRV-OH: on Furin, the Ki is > 100 nM.

In the case of H-TPREAARKKR-OH, the Ki at Furin is > 100 nM.

With H-TPREAARKKRG-OH, the inhibitory constant (Ki) at Furin was > 100 nM.

For the substance H-TPREAARKKRV-OH, the inhibitory constant (Ki) at Furin is > 100 nM.

For the substance H-TPREARRKKR-OH, the Ki at Furin is > 100 nM.

Take H-TPREARRKKRG-NH2: the inhibition constant Ki at Furin was > 100 nM.

On to H-TPREARRKKRG-OH, for which, on Furin, the Ki was > 100 nM.

Turning to H-TPREARRKKRV-OH, the inhibition constant Ki at Furin was > 100 nM.

In the case of H-TPRERAAKKR-OH, the Ki on Furin is > 100 nM.

For H-TPRERAAKKRG-OH, on Furin, the Ki was > 100 nM.

H-TPRERAAKKRV-OH: the Ki on Furin was > 100 nM.

Turning to H-TPRERARKKR-OH, the Ki on Furin is > 100 nM.

For H-TPRERARKKRG-NH2, at Furin, the Ki is > 100 nM.

Take H-TPRERARKKRG-OH: the Ki on Furin is > 100 nM.

For H-TPRERARKKRV-OH, at Furin, the Ki was > 100 nM.

For the substance H-TPRERRAAKR-OH, the Ki on Furin was > 100 nM.

On to H-TPRERRAAKRG-OH, for which the Ki at Furin is > 100 nM.

Turning to H-TPRERRAAKRV-OH, the Ki at Furin is > 100 nM.

In the case of H-TPRERRAKKR-OH, at Furin, the Ki is > 100 nM.

For the substance H-TPRERRAKKRG-NH2, the Ki at Furin was > 100 nM.

For the substance H-TPRERRAKKRG-OH, the Ki on Furin was > 100 nM.

Take H-TPRERRAKKRV-OH: the Ki on Furin was > 100 nM.

In the case of H-TPRERRRAARV-OH, the Ki at Furin was > 100 nM.

As for H-TPRERRRAKR-OH, the Ki on Furin was > 100 nM.

As to H-TPRERRRAKRG-NH2, the Ki at Furin is > 100 nM.

For the substance H-TPRERRRAKRG-OH, on Furin, the Ki is > 100 nM.

Consider H-TPRERRRAKRV-OH, for which the inhibition constant (Ki) on Furin is > 100 nM.

On to H-TPRERRRKAA-OH, for which the Ki on Furin is > 100 nM.

For H-TPRERRRKAAG-OH, the Ki on Furin was > 100 nM.

Regarding H-TPRERRRKAAV-OH, the Ki at Furin is > 100 nM.

With H-TPRERRRKAR-OH, the inhibitory constant (Ki) on Furin was > 100 nM.

For H-TPRERRRKARG-NH2, on Furin, the Ki is > 100 nM.

Regarding H-TPRERRRKARG-OH, the Ki on Furin is > 100 nM.

For H-TPRERRRKARV-OH, the Ki at Furin is > 100 nM.

For the substance H-TPRERRRKKA-OH, on Furin, the Ki was > 100 nM.

Consider H-TPRERRRKKAG-NH2, for which the inhibitory constant (Ki) on Furin is > 100 nM.

Turning to H-TPRERRRKKAG-OH, on Furin, the Ki was > 100 nM.

On to H-TPRERRRKKAV-OH, for which, at Furin, the inhibition constant Ki was > 100 nM.

On to H-TPRERRRKKR-OH, for which the Ki on Furin is > 100 nM.

Turning to H-TPRERRRKKRV-OH, the Ki on Furin is > 100 nM.

H-TPRFRRRKKRG-NH2: the Ki at Furin was > 100 nM.

H-TPRFRRRKKRG-OH: the Ki on Furin is > 100 nM.

As for H-TPRGRRRKKRG-NH2, the Ki on Furin is > 100 nM.

With H-TPRGRRRKKRG-OH, the inhibition constant (Ki) on Furin is > 100 nM.

On to H-TPRHRRRKKRG-NH2, for which the Ki at Furin is > 100 nM.

Regarding H-TPRHRRRKKRG-OH, the Ki at Furin is > 100 nM.

As to H-TPRIRRRKKRG-NH2, the Ki on Furin is > 100 nM.

As for H-TPRIRRRKKRG-OH, on Furin, the Ki was > 100 nM.

H-TPRLRRRKKRG-NH2: the Ki on Furin is > 100 nM.

For H-TPRLRRRKKRG-OH, the inhibitory constant (Ki) at Furin was > 100 nM.

In the case of H-TPRMRRRKKRG-NH2, the Ki on Furin was > 100 nM.

For H-TPRMRRRKKRG-OH, the Ki at Furin was > 100 nM.

On to H-TPRNRRRKKRG-NH2, for which the Ki on Furin is > 100 nM.

For the substance H-TPRNRRRKKRG-OH, the inhibition constant (Ki) on Furin is > 100 nM.

With H-TPRPRRRKKRG-NH2, at Furin, the Ki is > 100 nM.

For H-TPRPRRRKKRG-OH, the Ki at Furin was > 100 nM.

With H-TPRQRRRKKRG-NH2, the Ki on Furin is > 100 nM.

Consider H-TPRQRRRKKRG-OH, for which the Ki on Furin is > 100 nM.

For H-TPRRRRRKKRG-NH2, the Ki on Furin is > 100 nM.

In the case of H-TPRRRRRKKRG-OH, the Ki at Furin was > 100 nM.

Turning to H-TPRSRRRKKRG-NH2, the Ki on Furin was > 100 nM.

As for H-TPRSRRRKKRG-OH, the Ki at Furin is > 100 nM.

In the case of H-TPRTRRRKKRG-NH2, the Ki at Furin is > 100 nM.

H-TPRTRRRKKRG-OH: the Ki on Furin was > 100 nM.

H-TPRVRRRKKRG-NH2: the Ki on Furin is > 100 nM.

On to H-TPRVRRRKKRG-OH, for which, on Furin, the Ki was > 100 nM.

For the substance H-TPRWRRRKKRG-NH2, the Ki at Furin is > 100 nM.

In the case of H-TPRWRRRKKRG-OH, on Furin, the inhibition constant Ki is > 100 nM.

In the case of H-TPRYRRRKKRG-NH2, the Ki at Furin is > 100 nM.

For the substance H-TPRYRRRKKRG-OH, the inhibition constant Ki at Furin is > 100 nM.
